Source: US9079854B2 (priority 2007, dated 2015)
Read-outs that look alike come from different tables or passages of the source.

What was measured:
hCB2 receptor = biological target: T1, hCB2 receptor (Homo sapiens, UniProt P34972); assay: CB2 functional assay, [35S]GTP-γ-S binding; assay type: biochemical
T1 construct: purchased ES-111-MG; host or cells: CHO membrane extracts
Protocol: (§1) A dose response curve was generated at eight concentrations in duplicate on CB1 and CB2 in light of reference agonists.
(§2) Membranes (CB1, ES-110-MG or CB2, ES-111-MG) are mixed with GDP (volume:volume) and incubated for at least […] on ice. In parallel, […] are mixed with the beads (volume:volume) just before starting the reaction. The following reagents are successively added in the wells of an Optiplate: 50 μl of ligand, 20 μl of the membranes:GDP mix, 10 μl of assay buffer for agonist testing and 20 μl of the […]: beads mix. The plates are covered with a topseal, shaken on an orbital shaker for 2 min, and then incubated between 30 to 60 min at room temperature. Then the plates are centrifuged for 10 min at 2000 rpm, incubated at room temperature between 1 to 4 hours and counted for 1 min with a PerkinElmer TopCount reader.
(§3) Functional activity for acyl hydrazone was evaluated using [^35S]GTP-γ-S assay in CHO membrane extracts expressing recombinant hCB1 receptor or hCB2 receptor. The assay relies on the binding of [^35S]GTP-γ-S, a radiolabeled nonhydrolyzable GTP analogue, to the G protein upon binding of an agonist of the G-protein-coupled receptor. In this system, agonists stimulate [^35S]GTP-γ-S binding whereas neutral antagonist have no effect and inverse agonists decrease [^35S]GTP-γ-S basal binding.
(§4) CB1 and CB2 assay data are presented as the mean of two determinations. […] For replicate determinations, the maximum variability tolerated in the test was of ±20% around the average of the replicates.

CB1 = CB1 (Homo sapiens, UniProt P21554); assay: CB1 functional assay, [35S]GTP-γ-S binding; assay type: biochemical; design: purchased ES-110-MG; host or cells: CHO membrane extracts
Protocol: as §1, §2, §3, §4

[1] = biological target: T2, human CB1 (hCB1) receptor (Homo sapiens, UniProt P21554); assay: CB1 binding assay, competitive binding of [3H]CP 55940; design: % Inhibition of Control Specific Binding CB1: concentration or dose not given beside the values; settings: for % of Control Specific Binding 1st: 1st determination; for % of Control Specific Binding 2nd: 2nd determination; for inhibition at 10 µM / inhibition at 1 µM: specific binding of [3H]-CP55940; for inhibition at 1 µM: CHO membranes
T2 construct: expressed in transfected cells; host or cells: CHO (Chinese hamster ovary) cells, membranes
Protocol: Cell membrane homogenates (25 μg protein) are incubated for 120 min at 37° C. with 0.5 nM [^3H]CP 55940 (the reference standard [Rinaldi-Carmona, 1996 #1320]) in the absence or presence of the test compound in a buffer containing 50 mM Tris HCl (pH 7.4), 5 mM MgCl2, 2.5 mM EDTA, and 0.3% bovine serum albumin (BSA). […]
(§5) […] [^3H]-CP55940 at a concentration of 0.5 nM and [^3H]-WIN55212 at a concentration of 0.8 nM were used as radioligands for hCB1 and hCB2 assays, respectively. The results are expressed as a percent inhibition of control specific binding. Compounds which displaced the radioligand by more than 50% for either hCB1 or hCB2 receptors were arbitrary chosen for functional activity determination.

[2] = biological target: T3, human CB2 (hCB2) receptor (Homo sapiens, UniProt P34972); assay: CB2 binding assay, competitive binding of [3H]WIN 55212-2; settings: for % Inhibition of Control Specific Binding / % of Control Specific Binding 1st / % of Control Specific Binding 2nd / % of Control Specific Binding Mean: CB2, Test Concentration 1.0E−05 (MD); for % of Control Specific Binding 1st: 1st determination; for % of Control Specific Binding 2nd: 2nd determination; for % Inhibition of Control Specific Binding CB2: Table 4, concentration not given; for inhibition at 10 µM: read-out: % inhibition hCB2 receptor, at 10 μM; for inhibition at 10 µM / inhibition at 1 µM: specific binding of [3H]-WIN55212-2; for inhibition at 1 µM: read-out: % inhibition hCB2 receptor, at 1 μM, CHO membranes
T3 construct: expressed in transfected cells; host or cells: CHO (Chinese hamster ovary) cells, membranes
Protocol: Cell membrane homogenates (15 μg protein) are incubated for 120 min at 37° C. with 0.8 nM [^3H]WIN 55212-2 (the reference standard [Munro, 1993 #1321]) in the absence or presence of the test compound in a buffer containing 50 mM HEPES/Tris HCL (pH 7.4), 5 mM MgCl2, 2.5 mM EGTA, and 0.1% BSA. Nonspecific binding is determined in the presence of 10 μM WIN 55212-2. After being incubated, the samples are filtered rapidly under vacuum through glass fiber filters (GF/B; Packard) presoaked with 0.3% PEI and rinsed several times with ice-cold buffer containing 50 mM Tris HCl (pH 7.4) and 0.5% BSA using a 96-sample cell harvester (Unifilter; Packard). The filters are dried then counted for radioactivity in a scintillation counter (Topcount; Packard) using a scintillation cocktail (Microscint 0; Packard). The results are expressed as a percentage of the inhibition of the control radioligand-specific binding. The reference standard compounds are tested in each experiment at several concentrations to obtain a competition curve from which its IC50 is calculated.
as §5

[3] = Table 7, relative to the efficacy of CP55940
[4] = Table 9, relative to the efficacy of CP 55,940
[5] = CB1, Test Concentration 1.0E−05 (MD)
[6] = CB2 Functional Activity, read-out: EC50 (nM) for GTP Binding
[7] = Table 7, mean of two determinations, read-out: [35S]GTP-γ-S (hCB2) EC50 (nM ± SEM)
[8] = Table 7, mean of two determinations, read-out: [35S]GTP-γ-S (hCB1) EC50 (nM ± SEM)
[9] = Table 9, mean of two determinations, read-out: [35S]GTP-γ-S hCB2 EC50 (nM ± SEM)
[10] = Table 10, repeated experiment, read-out: [35S]GTP-γ-S hCB2 EC50

Chain of CB1 (P21554 whole entry): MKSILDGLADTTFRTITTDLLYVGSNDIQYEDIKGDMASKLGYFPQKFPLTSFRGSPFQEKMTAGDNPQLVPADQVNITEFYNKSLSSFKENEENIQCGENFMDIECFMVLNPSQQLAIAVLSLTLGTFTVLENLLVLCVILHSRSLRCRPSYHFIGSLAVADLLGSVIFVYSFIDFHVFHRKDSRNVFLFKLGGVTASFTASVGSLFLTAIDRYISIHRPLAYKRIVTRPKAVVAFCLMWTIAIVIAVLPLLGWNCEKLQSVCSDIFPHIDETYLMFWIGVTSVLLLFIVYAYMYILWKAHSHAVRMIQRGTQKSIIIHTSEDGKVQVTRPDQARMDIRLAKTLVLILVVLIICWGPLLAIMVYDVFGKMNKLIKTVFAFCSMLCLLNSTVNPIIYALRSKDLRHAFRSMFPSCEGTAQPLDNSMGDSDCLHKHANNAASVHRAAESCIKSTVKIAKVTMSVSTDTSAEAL
T2 sequence (P21554 whole entry): as above
T3 sequence (P34972 whole entry): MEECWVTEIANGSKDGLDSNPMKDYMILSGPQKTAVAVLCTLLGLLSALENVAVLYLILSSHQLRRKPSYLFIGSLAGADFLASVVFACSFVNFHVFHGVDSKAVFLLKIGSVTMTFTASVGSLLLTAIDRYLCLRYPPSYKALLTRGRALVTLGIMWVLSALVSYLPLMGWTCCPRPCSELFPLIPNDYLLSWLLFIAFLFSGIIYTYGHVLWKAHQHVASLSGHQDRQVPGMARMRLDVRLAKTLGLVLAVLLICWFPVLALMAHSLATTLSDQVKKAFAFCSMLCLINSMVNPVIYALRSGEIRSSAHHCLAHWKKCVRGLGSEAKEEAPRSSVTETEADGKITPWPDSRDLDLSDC
T1 sequence (P34972 whole entry): as above

CCCCCCC(C)(C)c1ccc([C@@H]2C[C@H](O)CC[C@H]2CCCO)c(O)c1 [CP55,940, reference compound]
Emax (hCB2 receptor; [3]): 100% | Emax (hCB2 receptor; [4]): 100% | Emax (CB1; [3]): 100% | Emax (CB1; [4]): 100%

O=C(N/N=C1\C(=O)N(CCC2CCCCC2)c2ccccc21)c1ccccc1 [Example 5, Benzoic acid [1-(2-cyclohexyl-ethyl)-2-oxo-1,2-dihydro-indol-3-ylidene]-hydrazide]
% of Control Specific Binding 1st [1, 5]: 0.4% | % of Control Specific Binding 2nd [1, 5]: 7.7% | % of Control Specific Binding Mean [1, 5]: 4% | inhibition at 10 µM [1]: 96 ± 3.7% | % Inhibition of Control Specific Binding [2]: 80% | % of Control Specific Binding 1st [2]: 13.9% | % of Control Specific Binding 2nd [2]: 26.4% | % of Control Specific Binding Mean [2]: 20.2% | % Inhibition of Control Specific Binding CB2 [2]: 80% | inhibition at 10 µM [2]: 79.8 ± 6.3% | % Activation Average (hCB2 receptor; CB2 Functional Activity): 55.55% | Compound Activity (hCB2 receptor; CB2 Functional Activity): Agonist | EC50 (hCB2 receptor; [6]): 103 nM | EC50 (hCB2 receptor; [7]): 103 ± 1.6 nM | Emax (hCB2 receptor; [3]): 55.6% | % Activation Average (CB1; CB1 Functional Activity): 56.75% | Compound Activity (CB1; CB1 Functional Activity): Agonist | Emax (CB1; [3]): 56.8%

CCCCCCN1C(=O)/C(=N\NC(=O)Cc2ccccc2)c2ccccc21 [Example 7, Phenylacetic acid [1-n-hexyl-2-oxo-1,2-dihydro-indol-3-ylidene]-hydrazide]
% Inhibition of Control Specific Binding [1, 5]: 98% | % of Control Specific Binding 1st [1, 5]: 0.9% | % of Control Specific Binding 2nd [1, 5]: 2.6% | % of Control Specific Binding Mean [1, 5]: 1.8% | % Inhibition of Control Specific Binding CB1 ([1]; Table 3, concentration not given): 98% | inhibition at 10 µM [1]: 98.2 ± 0.8% | % Inhibition of Control Specific Binding [2]: 92% | % of Control Specific Binding 1st [2]: 8.4% | % of Control Specific Binding 2nd [2]: 8.5% | % of Control Specific Binding Mean [2]: 8.5% | % Inhibition of Control Specific Binding CB2 [2]: 92% | inhibition at 10 µM [2]: 91.5 ± 0.1% | % Activation Average (hCB2 receptor; CB2 Functional Activity): 45.79% | Compound Activity (hCB2 receptor; CB2 Functional Activity): Agonist | EC50 (hCB2 receptor; [6]): 189 nM | EC50 (hCB2 receptor; [7]): 188.7 ± 1.3 nM | Emax (hCB2 receptor; [3]): 45.8% | % Activation Average (CB1; CB1 Functional Activity): 71.88% | Compound Activity (CB1; CB1 Functional Activity): Agonist | EC50 (CB1; CB1 Functional Activity, read-out: EC50 (nM) for GTP Binding): 459 nM | EC50 (CB1; [8]): 459 ± 1.1 nM | Emax (CB1; [3]): 71.9%

O=C(Cc1ccccc1)N/N=C1\C(=O)N(CCC2CCCCC2)c2ccccc21 [Example 10, N′-[1-(2-cyclohexylethyl)-2-oxo-1,2-dihydro-3H-indol-3-ylidene]-2-phenylacetohydrazide]
inhibition at 10 µM [1]: 88.8 ± 0.6% | inhibition at 10 µM [2]: 47.2 ± 7.7% | Emax (hCB2 receptor; [3]): 21% | EC50 (CB1; [8]): 1238.8 ± 1.2 nM | Emax (CB1; [3]): 75%

CCCCCCN1C(=O)/C(=N\NC(=O)C2CCCCC2)c2ccccc21 [Example 11, N′-[(3Z)-1-hexyl-2-oxo-1,2-dihydro-3H-indol-3-ylidene]cyclohexanecarbohydrazide]
inhibition at 1 µM [1]: 65.8 ± 0.2% | inhibition at 1 µM [2]: 61 ± 2.1% | EC50 (hCB2 receptor; [9]): 79.1 ± 1.5 nM | Emax (hCB2 receptor; [4]): 58% | Emax at 3 µM (CB1; read-out: [35S]GTP-γ-S hCB1 Emax (%), Table 9 footnote a: Efficacy determined at 3 μM, relative to CP 55,940): 40.9%

CCCN1C(=O)/C(=N\NC(=O)c2ccccc2)c2ccccc21 [Example 21, N′-[(3Z)-1-(1-propyl)-2-oxo-1,2-dihydro-3H-indol-3-ylidene]benzohydrazide]
inhibition at 1 µM [1]: 43 ± 1.2% | inhibition at 1 µM [2]: 32 ± 3.6% | EC50 (hCB2 receptor; [9]): 200.7 ± 1.5 nM | Emax (hCB2 receptor; [4]): 61.4%

CCCCCCN1C(=O)/C(=N\NC(=O)c2ccccc2)c2cccc(C)c21 [Example 28, N′-[(3Z)-1-hexyl-7-methyl-2-oxo-1,2-dihydro-3H-indol-3-ylidene]benzohydrazide]
inhibition at 1 µM [1]: 67 ± 1.6% | inhibition at 1 µM [2]: 68 ± 3.7% | EC50 (hCB2 receptor; [9]): 84 ± 2.2 nM | Emax (hCB2 receptor; [4]): 34.2%

CCCCCCN1C(=O)/C(=N\NC(=O)c2ccccc2)c2cccc(Cl)c21 [Example 29, N′-[(3Z)-7-chloro-1-hexyl-2-oxo-1,2-dihydro-3H-indol-3-ylidene]benzohydrazide]
inhibition at 1 µM [1]: 60 ± 1% | inhibition at 1 µM [2]: 29 ± 4.5% | EC50 (hCB2 receptor; [9]): 645.5 ± 1.3 nM | Emax (hCB2 receptor; [4]): 64.8%

CCCCCCN1C(=O)/C(=N\NC(=O)c2ccccc2)c2cccc(I)c21 [Example 30, N′-[(3Z)-1-hexyl-7-iodo-2-oxo-1,2-dihydro-3H-indol-3-ylidene]benzohydrazide]
inhibition at 1 µM [1]: 61 ± 2.5% | inhibition at 1 µM [2]: 66 ± 3.2% | Emax at 3 µM (hCB2 receptor; read-out: [35S]GTP-γ-S hCB2 Emax (%), Table 9 footnote a: Efficacy determined at 3 μM, relative to CP 55,940): 55%

CCCCCCN1C(=O)/C(=N\NC(=O)c2ccccc2)c2cc(F)ccc21 [Example 33, N′-[(3Z)-5-fluoro-1-hexyl-2-oxo-1,2-dihydro-3H-indol-3-ylidene]benzohydrazide]
inhibition at 1 µM [1]: 57 ± 0.7% | inhibition at 1 µM [2]: 46 ± 1.7% | EC50 (hCB2 receptor; [9]): 186.9 ± 1.7 nM | Emax (hCB2 receptor; [4]): 33.8%

CCCCCCN1C(=O)/C(=N\NC(=O)c2ccccc2)c2ccc(OC)cc21 [Example 36, N′-[(3Z)-1-hexyl-6-methoxy-2-oxo-1,2-dihydro-3H-indol-3-ylidene]benzohydrazide]
EC50 (hCB2 receptor): 85 nM | Emax (hCB2 receptor; Table 10, repeated experiment): -95%

COc1ccc2c(c1)N(CC1CCCCC1)C(=O)/C2=N\NC(=O)c1ccccc1 [Example 37, N′-[(3Z)-1-(cyclohexylmethyl)-6-methoxy-2-oxo-1,2-dihydro-3H-indol-3-ylidene]benzohydrazide]
Emax (hCB2 receptor; Table 10, repeated experiment): -82% | EC50 (hCB2 receptor; [10]): 18 nM | Emax (CB1; Table 10, repeated experiment): 40.8% | EC50 (CB1; Table 10, repeated experiment, read-out: [35S]GTP-γ-S hCB1 EC50): 61.2 nM

COc1ccc2c(c1)N(Cc1ccccc1)C(=O)/C2=N\NC(=O)c1ccccc1 [Example 38, N′-[(3Z)-1-benzyl-6-methoxy-2-oxo-1,2-dihydro-3H-indol-3-ylidene]benzohydrazide]
Emax (hCB2 receptor; Table 10, repeated experiment): -96% | EC50 (hCB2 receptor; [10]): 102 nM

CCCCCN1C(=O)/C(=N\NC(=O)c2ccccc2)c2ccc(OC)cc21 [Example 39, N′-[(3Z)-6-methoxy-1-pentyl-2-oxo-1,2-dihydro-3H-indol-3-ylidene]benzohydrazide]
Emax (hCB2 receptor; Table 10, repeated experiment): -108% | EC50 (hCB2 receptor; [10]): 5.8 nM

CCCCN1C(=O)/C(=N\NC(=O)c2ccccc2)c2ccc(OC)cc21 [Example 40, N′-[(3Z)-1-butyl-6-methoxy-2-oxo-1,2-dihydro-3H-indol-3-ylidene]benzohydrazide]
Emax (hCB2 receptor; Table 10, repeated experiment): -95% | EC50 (hCB2 receptor; [10]): 85 nM

COc1ccc2c(c1)N(CCC1CCCCC1)C(=O)/C2=N\NC(=O)c1ccccc1 [Example 41, N′-[(3Z)-1-(2-cyclohexylethyl)-6-methoxy-2-oxo-1,2-dihydro-3H-indol-3-ylidene]benzohydrazide]
Emax (hCB2 receptor; Table 10, repeated experiment): -104% | EC50 (hCB2 receptor; [10]): 540 nM
